ChEMBL document CHEMBL5223144, “Second generation Spautin-1 analogues targeting EGFR-mutant non-small cell lung cancer cells” (Bioorg Med Chem Lett, 2023)
Activity calls are given as the source filed them. The rule behind the calls is not given here.

Columns and labels:
PC-9 [1] = experiment: Cytotoxicity against human PC-9 cells harboring EGFR mutant assessed as inhibition of cell growth; format: functional, cell-based
PC-9 [2] = experiment: Cytotoxicity against human PC-9 cells harboring EGFR mutant assessed as inhibition of cell growth incubated for 72 hrs by ATP-based luminescence CellTiter-Glo assay; format: functional; conditions: PC-9, 72 h
PC-9 [3] = experiment: Additive cytotoxicity against human PC-9 cells assessed as reduction in cell viability at 34 nM incubated in presence of afatinib; format: functional, cell-based
BEAS-2B [4] = experiment: Cytotoxicity against human BEAS-2B cells assessed as reduction in cell viability at 34 nM; format: toxicity, cell-based; conditions: 0.034 µM
BEAS-2B [5] = experiment: Cytotoxicity against human BEAS-2B cells assessed as reduction in cell viability at 34 nM incubated in presence of afatinib; format: toxicity, cell-based; conditions: 0.034 µM
[6] = target: Epidermal growth factor receptor (Homo sapiens) (UniProt P00533); experiment: Inhibition of EGFR (unknown origin) assessed as residual activity relative to control
Epidermal growth factor receptor (Homo sapiens), sequence (P00533 whole entry): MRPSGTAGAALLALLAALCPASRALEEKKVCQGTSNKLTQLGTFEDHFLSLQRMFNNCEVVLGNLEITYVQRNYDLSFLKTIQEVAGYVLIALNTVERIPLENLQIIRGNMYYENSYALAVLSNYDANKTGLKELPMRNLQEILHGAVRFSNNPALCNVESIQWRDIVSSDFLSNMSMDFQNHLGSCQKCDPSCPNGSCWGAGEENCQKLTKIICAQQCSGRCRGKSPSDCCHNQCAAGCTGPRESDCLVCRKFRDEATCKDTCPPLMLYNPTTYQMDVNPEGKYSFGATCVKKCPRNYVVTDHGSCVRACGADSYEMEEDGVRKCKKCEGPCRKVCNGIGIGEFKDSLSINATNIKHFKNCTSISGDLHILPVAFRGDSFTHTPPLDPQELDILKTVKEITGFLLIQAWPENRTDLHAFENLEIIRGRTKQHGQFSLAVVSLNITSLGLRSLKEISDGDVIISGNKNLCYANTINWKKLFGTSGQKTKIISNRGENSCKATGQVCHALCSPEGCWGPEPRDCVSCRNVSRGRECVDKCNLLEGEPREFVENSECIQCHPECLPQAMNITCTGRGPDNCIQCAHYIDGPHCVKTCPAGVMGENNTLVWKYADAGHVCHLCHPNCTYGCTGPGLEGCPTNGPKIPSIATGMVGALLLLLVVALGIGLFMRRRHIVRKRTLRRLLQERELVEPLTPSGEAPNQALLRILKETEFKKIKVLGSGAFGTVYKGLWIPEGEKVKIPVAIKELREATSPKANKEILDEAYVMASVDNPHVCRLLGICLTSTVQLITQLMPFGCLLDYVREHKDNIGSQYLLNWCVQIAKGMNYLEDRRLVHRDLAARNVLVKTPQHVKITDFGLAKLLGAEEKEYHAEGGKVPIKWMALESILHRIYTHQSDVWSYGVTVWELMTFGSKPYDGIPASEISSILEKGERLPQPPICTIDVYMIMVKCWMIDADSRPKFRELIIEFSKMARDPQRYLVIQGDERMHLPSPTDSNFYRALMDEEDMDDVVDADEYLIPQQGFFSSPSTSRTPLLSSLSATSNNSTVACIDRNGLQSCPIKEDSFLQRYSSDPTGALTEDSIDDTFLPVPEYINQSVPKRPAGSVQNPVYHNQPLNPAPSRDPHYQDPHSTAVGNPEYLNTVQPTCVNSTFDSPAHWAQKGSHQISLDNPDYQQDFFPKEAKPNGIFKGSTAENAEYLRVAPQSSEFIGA

[7] = target: Tyrosine-protein kinase Fer (Homo sapiens) (UniProt P16591); experiment: Inhibition of FER (unknown origin) at 50 nM
Tyrosine-protein kinase Fer (Homo sapiens), sequence (P16591 whole entry, looked up): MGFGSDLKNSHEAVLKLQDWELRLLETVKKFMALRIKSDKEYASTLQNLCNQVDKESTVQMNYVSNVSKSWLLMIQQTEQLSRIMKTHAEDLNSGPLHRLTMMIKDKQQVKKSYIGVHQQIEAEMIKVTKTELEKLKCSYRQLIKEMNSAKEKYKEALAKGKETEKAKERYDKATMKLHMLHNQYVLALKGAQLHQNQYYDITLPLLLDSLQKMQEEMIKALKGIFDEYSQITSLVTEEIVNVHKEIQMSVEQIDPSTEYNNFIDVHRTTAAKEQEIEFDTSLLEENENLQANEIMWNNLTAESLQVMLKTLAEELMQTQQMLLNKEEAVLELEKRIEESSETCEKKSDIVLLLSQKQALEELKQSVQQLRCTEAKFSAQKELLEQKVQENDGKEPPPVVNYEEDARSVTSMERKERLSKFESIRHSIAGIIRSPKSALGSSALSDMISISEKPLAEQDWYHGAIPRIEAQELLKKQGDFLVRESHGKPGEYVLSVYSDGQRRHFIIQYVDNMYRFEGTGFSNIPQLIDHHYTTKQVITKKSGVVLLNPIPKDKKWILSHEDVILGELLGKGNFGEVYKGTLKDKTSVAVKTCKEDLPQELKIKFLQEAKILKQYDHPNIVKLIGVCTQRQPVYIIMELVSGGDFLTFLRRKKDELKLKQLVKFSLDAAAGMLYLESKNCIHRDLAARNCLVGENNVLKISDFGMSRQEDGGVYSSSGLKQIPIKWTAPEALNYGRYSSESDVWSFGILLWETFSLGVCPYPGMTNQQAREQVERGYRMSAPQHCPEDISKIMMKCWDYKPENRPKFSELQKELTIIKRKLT

[8] = target: ALK tyrosine kinase receptor (Homo sapiens) (UniProt Q9UM73); experiment: Inhibition of ALK (unknown origin) at 50 nM
ALK tyrosine kinase receptor (Homo sapiens), sequence (Q9UM73 19-1620 limits assumed): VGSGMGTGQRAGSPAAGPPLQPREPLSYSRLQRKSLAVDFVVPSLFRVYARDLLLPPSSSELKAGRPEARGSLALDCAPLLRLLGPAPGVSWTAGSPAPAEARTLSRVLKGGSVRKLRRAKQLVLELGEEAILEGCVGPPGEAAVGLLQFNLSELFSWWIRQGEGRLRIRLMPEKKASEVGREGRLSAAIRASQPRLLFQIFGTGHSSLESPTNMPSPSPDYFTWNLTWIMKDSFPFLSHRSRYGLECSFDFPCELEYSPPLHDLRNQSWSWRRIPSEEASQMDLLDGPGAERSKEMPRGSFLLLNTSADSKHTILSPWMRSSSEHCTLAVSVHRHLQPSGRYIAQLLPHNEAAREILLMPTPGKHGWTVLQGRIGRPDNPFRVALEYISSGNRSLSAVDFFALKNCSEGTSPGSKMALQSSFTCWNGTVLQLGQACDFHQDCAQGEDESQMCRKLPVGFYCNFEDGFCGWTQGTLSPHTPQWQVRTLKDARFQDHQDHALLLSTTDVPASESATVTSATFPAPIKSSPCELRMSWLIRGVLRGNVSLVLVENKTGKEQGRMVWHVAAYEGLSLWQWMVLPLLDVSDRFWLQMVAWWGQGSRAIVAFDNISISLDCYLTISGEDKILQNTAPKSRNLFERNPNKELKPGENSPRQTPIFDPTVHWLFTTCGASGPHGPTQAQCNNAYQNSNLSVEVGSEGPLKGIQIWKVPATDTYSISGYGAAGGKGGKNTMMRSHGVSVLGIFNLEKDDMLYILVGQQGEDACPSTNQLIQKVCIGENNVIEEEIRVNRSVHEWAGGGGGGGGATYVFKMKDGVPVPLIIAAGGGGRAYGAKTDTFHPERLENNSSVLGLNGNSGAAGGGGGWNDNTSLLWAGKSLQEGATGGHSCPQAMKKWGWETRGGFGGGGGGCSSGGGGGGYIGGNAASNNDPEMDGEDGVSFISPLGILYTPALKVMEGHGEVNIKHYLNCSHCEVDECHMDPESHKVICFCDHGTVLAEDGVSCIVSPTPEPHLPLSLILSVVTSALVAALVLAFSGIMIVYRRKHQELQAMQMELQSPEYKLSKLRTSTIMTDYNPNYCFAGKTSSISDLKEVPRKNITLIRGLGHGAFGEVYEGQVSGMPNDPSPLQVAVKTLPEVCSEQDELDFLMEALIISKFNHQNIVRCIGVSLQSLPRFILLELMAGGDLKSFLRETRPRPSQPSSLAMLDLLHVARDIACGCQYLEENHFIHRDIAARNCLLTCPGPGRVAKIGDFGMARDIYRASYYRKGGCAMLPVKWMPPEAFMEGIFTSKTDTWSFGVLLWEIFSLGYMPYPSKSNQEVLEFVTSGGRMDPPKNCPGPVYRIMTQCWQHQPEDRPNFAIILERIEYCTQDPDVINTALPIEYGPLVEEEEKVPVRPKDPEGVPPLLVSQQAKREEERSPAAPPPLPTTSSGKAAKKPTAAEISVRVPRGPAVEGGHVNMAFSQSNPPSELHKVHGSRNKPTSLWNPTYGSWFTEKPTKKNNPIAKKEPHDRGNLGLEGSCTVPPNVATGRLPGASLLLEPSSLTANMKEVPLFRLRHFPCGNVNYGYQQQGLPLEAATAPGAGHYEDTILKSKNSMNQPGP

[9] = target: Serine/threonine-protein kinase pim-1 (Homo sapiens) (UniProt P11309); experiment: Inhibition of Moloney murine leukemia virus Proviral integration site 1 at 50 nM
PC-9 [10] = experiment: Additive cytotoxicity against human PC-9 cells assessed as reduction in cell viability at 4 nM incubated in presence of afatinib; format: functional, cell-based
BEAS-2B [11] = experiment: Cytotoxicity against human BEAS-2B cells assessed as reduction in cell viability at 4 nM; format: toxicity, cell-based; conditions: 0.004 µM
BEAS-2B [12] = experiment: Cytotoxicity against human BEAS-2B cells assessed as reduction in cell viability at 4 nM incubated in presence of afatinib; format: toxicity, cell-based; conditions: 0.004 µM
[13] = target: Tyrosine-protein kinase Fer (Homo sapiens) (UniProt P16591); experiment: Inhibition of FER (unknown origin) at 10 nM
[14] = target: ALK tyrosine kinase receptor (Homo sapiens) (UniProt Q9UM73); experiment: Inhibition of ALK (unknown origin) at 10 nM
[15] = target: Serine/threonine-protein kinase pim-1 (Homo sapiens) (UniProt P11309); experiment: Inhibition of Moloney murine leukemia virus Proviral integration site 1 at 10 nM

Row | SMILES | IC50 (PC-9 [1]) [nM] | also measured
1 | Fc1ccc2ncnc(NCCc3cccc(Br)c3)c2c1 | 685 | –
2 | Fc1ccc2ncnc(NCCc3ccccc3-c3ccccc3)c2c1 | > 5000 | –
3 | Fc1ccc(CNc2ncnc3ccc(F)cc23)cc1 | – | IC50 (PC-9 [2]): > 5000 nM
4 | Fc1ccc2ncnc(NCCc3ccccc3Br)c2c1 | 892 | –
5 | CC(C)(C)c1ccc(CCNc2ncnc3ccc(F)cc23)cc1 | 45 | –
6 | Fc1ccc2ncnc(NCCc3ccc(OCc4ccccc4)cc3)c2c1 | 30 | –
7 | CC(C)(C)Oc1ccc(-c2ccc(CCNc3ncnc4ccc(F)cc34)cc2)cc1 | 1700 | –
8 | Fc1ccc2ncnc(NCCc3ccc(-c4cccc5ccccc45)cc3)c2c1 | 291 | –
9 | Fc1ccc2ncnc(NCCc3ccc(Oc4ccccc4)cc3)c2c1 | 14 | –
10 | Fc1ccc2ncnc(NCCc3ccc(-c4ccncc4)cc3)c2c1 | 408 | –
11 | CC(C)(C)c1ccc(-c2ccc(CCNc3ncnc4ccc(F)cc34)cc2)cc1 | 363 | –
12 | Fc1ccc2ncnc(Nc3ccc4cc(Br)ccc4c3)c2c1 | > 5000 | –
13 | Fc1ccc2ncnc(NCCc3ccc(I)cc3)c2c1 | 261 | –
14 | Fc1ccc2ncnc(NCCc3ccc4ccccc4c3)c2c1 | 64 | –
15 | Fc1ccc2ncnc(NCCc3ccc(-c4ccc5c(c4)OCCO5)cc3)c2c1 | 69 | –
16 | Fc1ccc2ncnc(NCCc3ccc(-c4ccc(Oc5ccccc5)cc4)cc3)c2c1 | 280 | –
17 | Fc1ccc2ncnc(NC3CCc4cc(Br)ccc4C3)c2c1 (centres undefined) | 718 | –
18 | Fc1ccc2ncnc(NCCc3ccc(-c4ccccc4)cc3)c2c1 | 77 | –
19 | Fc1ccc2ncnc(NCCc3ccc(-c4ccccc4F)cc3)c2c1 | 66 | –
20 | Fc1ccc2ncnc(NCCc3ccc(-c4ccc(C(F)(F)F)cc4)cc3)c2c1 | 131 | –

Row | SMILES | IC50 (PC-9 [1]) [nM] | also measured
21 | COc1ccc(-c2ccc(CCNc3ncnc4ccc(F)cc34)cc2)cc1 | 69 | –
22 | Fc1ccc2ncnc(NCCc3ccc(-c4cccc(F)c4F)cc3)c2c1 | 76 | –
23 | Fc1ccc(-c2ccc(CCNc3ncnc4ccc(F)cc34)cc2)c(F)c1 | 34 | Activity (PC-9 [3]): Active; Activity (BEAS-2B [4]): Non-Toxic; Activity (BEAS-2B [5]): Non-Toxic; Activity [6]: > 90%; inhibition [7]: Active; inhibition [8]: Active; inhibition [9]: Active
24 | CN(C)C/C=C/C(=O)Nc1cc2c(Nc3ccc(F)c(Cl)c3)ncnc2cc1O[C@H]1CCOC1 [AFATINIB] | 5 | –
25 | Fc1ccc2ncnc(NCCc3ccc(Br)cc3)c2c1 | – | IC50 (PC-9 [2]): 207 nM
26 | COc1ccc(Oc2ccc(CCNc3ncnc4ccc(F)cc34)cc2)cc1 | 7 | –
27 | Fc1ccc2ncnc(NCCc3ccc(-c4ccc5oc6ccccc6c5c4)cc3)c2c1 | 79 | –
28 | Fc1ccc(-c2ccc(CCNc3ncnc4ccc(F)cc34)cc2)cc1 | 160 | –
29 | Fc1ccc2ncnc(NCCc3ccc(-c4cccnc4)cc3)c2c1 | 1040 | –
30 | COc1cccc(-c2ccc(CCNc3ncnc4ccc(F)cc34)cc2)c1 | 67 | –
31 | Fc1ccc(Oc2ccc(CCNc3ncnc4ccc(F)cc34)cc2)cc1 | 4 | Activity (PC-9 [10]): Active; Activity (BEAS-2B [11]): Non-Toxic; Activity (BEAS-2B [12]): Non-Toxic; Activity [6]: > 90%; inhibition [13]: Active; inhibition [14]: Active; inhibition [15]: Active
32 | COc1ccccc1-c1ccc(CCNc2ncnc3ccc(F)cc23)cc1 | 105 | –
33 | Fc1ccc2ncnc(NCCc3cccc(-c4ccccc4)c3)c2c1 | 668 | –
34 | Fc1ccc2ncnc(NCCc3ccc(-c4ccco4)cc3)c2c1 | 636 | –
35 | Fc1ccc2ncnc(NCCc3ccc(-c4ccc(Cl)cc4)cc3)c2c1 | 44 | –
36 | Fc1ccc2ncnc(NCCc3ccc(-c4ccoc4)cc3)c2c1 | 288 | –
37 | Fc1cccc(-c2ccc(CCNc3ncnc4ccc(F)cc34)cc2)c1 | 618 | –
38 | Fc1ccc2ncnc(NCCc3ccc(-c4ccc5ccccc5c4)cc3)c2c1 | 101 | –
39 | Cc1ccc(-c2ccc(CCNc3ncnc4ccc(F)cc34)cc2)cc1 | 49 | –
40 | Fc1ccc2ncnc(NCCc3ccc(-c4ccc(F)c(F)c4)cc3)c2c1 | 138 | –
